For one data set, the system named is Swiss albino mice. Kind of data set: Serum triglyceride lowering activity in Swiss albino mice. The following applies: Mus musculus, po, 144 h; male Swiss albino mice, 10 mg/kg/day orally for 6 days, serum 1 hour after dosing on 6th day. Format: in vivo. How it is done:
Male Swiss albino mice (SAM) were bred in Zydus animal house. All these animals were maintained under 12 hour light and dark cycle at 25±1° C. Animals were given standard laboratory chow (NIN, Hyderabad, India) and water ad libitum. SAM of 20-30 g body weight range was used. The protocol approved by Institutional Animal Ethics Committee is being used.
The test compounds were administered orally to Swiss albino mice at 0.001 to 50 mg/kg/day dose for 6 days. The compound was administered after suspending it in 0.25% CMC or dissolving it in water, when compound is water-soluble. Control mice were treated with vehicle (0.25% of Carboxymethyl cellulose; dose 10 ml/kg).
The blood samples were collected on 0th day and in fed state 1 hour after drug administration on 6th day of the treatment. The blood was collected in non heparinised capillary and the serum was analyzed for triglyceride (Wieland, O. Methods of Enzymatic analysis. Bergermeyer, H., O., Ed., 1963. 211-214; Trinder, P. Ann. Clin. Biochem. 1969. 6: 24-27). Measurement of serum triglyceride was done using commercial kits (Zydus-Cadila, Pathline, Ahmedabad, India).
Percentage Reduction in Triglycerides was Calculated According to the Formula: […]

The subject of a further data set is C57BL/KsJ-db/db mice. Description: Serum glucose and triglycerides lowering activity in db/db mice. As to conditions: male db/db mice, 3 mg/kg/day oral gavage for 6 days, 1 hour after dosing on 6th day. Type of data set: in vivo. On the procedure:
Homozygous animal C57BL/KsJ-db/db mice are obese, hyperglycemic, hyperinsulinemic and insulin resistant (J. Clin. Invest, 85, 962-967, 1990), whereas heterozygous are lean and normoglycemic. The homozygous animals very closely mimic the human type H diabetes when blood sugar levels are not sufficiently controlled. Since this type of model resembles human type II diabetes mellitus, the compounds of the invention were tested for their antidiabetic activity in this model.
Male C57BL/KsJ-db/db mice of 8 to 14 weeks age, having body weight range of 40 to 60 grams, procured from the Jackson Laboratory, USA, were used in the experiment.
Test compounds were suspended on 0.25% carboxymethyl cellulose or dissolved in water when the compound is water soluble and administered to test group containing 6 animals at a dose of 0.001 mg to 50 mg/kg through oral gavage daily for 6 days. The control group received vehicle (dose 10 ml/kg). On the 6th day, one hour after the drug dosing, blood was collected from retro-orbital sinus and the serum was analyzed for glucose and triglycerides were measured using commercial kits (Zydus-Cadila, Pathline, Ahmedabad, India). The serum glucose and triglyceride lowering activities of the test compound was calculated according of the formula: […]

Structures can show the parent of a compound that is named as a salt.

As usually defined, the melting point is the temperature of the solid-liquid transition. In general, inhibition in vivo refers to the share of the control response that was lost under treatment. High values mean a strong effect, low ones a weak effect.

As to `CC(=NOCCCCC1COC(C)(C(=O)O)OC1)c1ccc2ccccc2c1` (centres unmarked) (as salt: sodium) [Example 84, Sodium Salt of 2-Methyl-5-[4-(1-naphthalen-2-yl-ethylideneaminooxy)-butyl]-[1,3]dioxane-2-carboxylic Acid], the melting point was determined as 240 °C.
In the case of `CC(=NOCCCCC1COC(C)(C(=O)O)OC1)c1ccc(C(F)(F)F)cc1` (centres unmarked) [Example 44, 2-Methyl-5-{4-[1-(4-trifluoromethyl-phenyl)-ethylideneaminooxy]-butyl}-[1,3]dioxane-2-carboxylic Acid], the inhibition in vivo at 10 mg/kg/day in the data set with Swiss albino mice worked out at 40%.
Turning to `CC(=NOCCCCC1COC(C)(C(=O)O)OC1)c1ccc(Cl)cc1` (centres unmarked) [Example 46, 5-{4-[1-(4-Chloro-phenyl)-ethylideneaminooxy]-butyl}-2-methyl-[1,3]dioxane-2-carboxylic Acid], the inhibition in vivo at 10 mg/kg/day in the data set on Swiss albino mice was determined as 39%.
`CC(=NOCCCCC1COC(C)(C(=O)O)OC1)c1ccc(C)cc1` (centres unmarked) [Example 48, 2-Methyl-5-[4-(1-p-tolyl-ethylideneaminooxy)-butyl]-[1,3]dioxane-2-carboxylic Acid]: the inhibition in vivo at 10 mg/kg/day with Swiss albino mice stood at 64%. Also, in the data set on C57BL/KsJ-db/db mice, the “Plasma TG reduction (%)” value was 44% and the “Serum Glucose reduction (%)” value is 14%.
`CC(=NOCCCCC1COC(C)(C(=O)O)OC1)c1ccc(F)c(Cl)c1` (centres unmarked) [Example 49, 5-{4-[1-(3-Chloro-4-fluoro-phenyl)-ethylideneaminooxy]-butyl}-2-methyl-[1,3]dioxane-2-carboxylic Acid] gave an inhibition in vivo at 10 mg/kg/day in the data set on Swiss albino mice of 51%.
Still for that read-out and setting: with `CCc1ccc(C(C)=NOCCCCC2COC(C)(C(=O)O)OC2)cc1` (centres unmarked) [Example 52, 5-{4-[1-(4-Ethyl-phenyl)-ethylideneaminooxy]-butyl}-2-methyl-[1,3]dioxane-2-carboxylic Acid] the figure was 36%.
In the data set on Swiss albino mice, `CCOc1ccc(C(C)=NOCCCCC2COC(C)(C(=O)O)OC2)cc1` (centres unmarked) [Example 55, 5-{4-[1-(4-Ethoxy-phenyl)-ethylideneaminooxy]-butyl}-2-methyl-[1,3]dioxane-2-carboxylic Acid] gave an inhibition in vivo at 10 mg/kg/day of 46%.
In turn, `COc1ccc(C(C)=NOCCCCC2COC(C)(C(=O)O)OC2)cc1C` (centres unmarked) [Example 57, 5-{4-[1-(4-Methoxy-3-methyl-phenyl)-ethylideneaminooxy]-butyl}-2-methyl-[1,3]dioxane-2-carboxylic Acid] showed an inhibition in vivo at 10 mg/kg/day in the data set with Swiss albino mice of 43%.
In turn, `COc1ccc(C(C)=NOCCCCC2COC(C)(C(=O)O)OC2)cc1OC` (centres unmarked) [Example 59, 5-{4-[1-(3,4-Dimethoxy-phenyl)-ethylideneaminooxy]-butyl}-2-methyl-[1,3]dioxane-2-carboxylic Acid] displayed an inhibition in vivo at 10 mg/kg/day in the data set on Swiss albino mice of 22%.
For `CC(=NOCCCCC1COC(C)(C(=O)O)OC1)c1ccc(CC(C)C)cc1` (centres unmarked) [Example 60, 5-{4-[1-(4-Isobutyl-phenyl)-ethylideneaminooxy]-butyl}-2-methyl-[1,3]dioxane-2-carboxylic Acid], the inhibition in vivo at 10 mg/kg/day in the data set on Swiss albino mice came to 62%.
The same measure, in the same setting: for `COc1ccc(C(C)=NOCCCCC2COC(C)(C(=O)O)OC2)cc1F` (centres unmarked) [Example 61, 5-{4-[1-(3-Fluoro-4-methoxy-phenyl)-ethylideneaminooxy]-butyl}-2-methyl-[1,3]dioxane-2-carboxylic Acid] the value was 44%; for `CC(=NOCCCCCC1COC(C)(C(=O)O)OC1)c1ccc2ccccc2c1` (centres unmarked) [Example 62, 2-Methyl-5-[5-(1-naphthalen-2-yl-ethylideneaminooxy)-pentyl]-[1,3]dioxane-2-carboxylic Acid], 69%.
For `CC(=NOCCCCC1COC(C)(C(=O)O)OC1)c1ccc2ccccc2c1` (centres unmarked) [Example 63, 2-Methyl-5-[4-(1-naphthalen-2-yl-ethylideneaminooxy)-butyl]-[1,3]dioxane-2-carboxylic Acid], the inhibition in vivo at 10 mg/kg/day in the data set with Swiss albino mice was determined as 84%. In the data set with C57BL/KsJ-db/db mice, the “Plasma TG reduction (%)” value was found to be 59% and the “Serum Glucose reduction (%)” value is on record as 41%.
In turn, `CC(=NOCCCCC1COC(C)(C(=O)O)OC1)c1ccc2c(c1)CCCC2` (centres unmarked) [Example 64, 2-Methyl-5-{4-[1-(5,6,7,8-tetrahydro-naphthalen-2-yl)-ethylideneaminooxy]-butyl}-[1,3]dioxane-2-carboxylic Acid] returned an inhibition in vivo at 10 mg/kg/day in the data set on Swiss albino mice of 85%. In the data set on C57BL/KsJ-db/db mice, the “Plasma TG reduction (%)” value amounted to 46% and the “Serum Glucose reduction (%)” value is 31%.
On to `COc1ccc(C(C)=NOCCCCC2COC(C)(C(=O)O)OC2)cc1` (centres unmarked) [Example 66, 5-{4-[1-(4-Methoxy-phenyl)-ethylideneaminooxy]-butyl}-2-methyl-[1,3]dioxane-2-carboxylic Acid], for which the inhibition in vivo at 10 mg/kg/day in the data set with Swiss albino mice was 50%. Further, in the data set with C57BL/KsJ-db/db mice, the “Plasma TG reduction (%)” value came to 45% and the “Serum Glucose reduction (%)” value stood at 27%.
With `CC(=NOCCCCC1COC(C)(C(=O)O)OC1)c1ccc(OS(C)(=O)=O)cc1` (centres unmarked) [Example 67, 5-{4-[1-(4-Methanesulfonyloxy-phenyl)-ethylideneaminooxy]-butyl}-2-methyl-[1,3]dioxane-2-carboxylic Acid], the inhibition in vivo at 10 mg/kg/day in the data set with Swiss albino mice was 75%. In addition, in the data set with C57BL/KsJ-db/db mice, the “Plasma TG reduction (%)” value was found to be 48% and the “Serum Glucose reduction (%)” value was 12%.
`CC(=NOCCCCC1COC(C)(C(=O)O)OC1)c1cccs1` (centres unmarked) [Example 68, 2-Methyl-5-[4-(1-thiophen-2-yl-ethylideneaminooxy)-butyl]-[1,3]dioxane-2-carboxylic Acid] came in with an inhibition in vivo at 10 mg/kg/day in the data set on Swiss albino mice of 33%.
Take `CC(=NOCCCCC1COC(C)(C(=O)O)OC1)c1ccc2c(c1)OCO2` (centres unmarked) [Example 69, 5-[4-(1-Benzo[1,3]dioxol-5-yl-ethylideneaminooxy)-butyl]-2-methyl-[1,3]dioxane-2-carboxylic acid]: the inhibition in vivo at 10 mg/kg/day in the data set with Swiss albino mice was determined as 61%.
Molecule `CC(=NOCCCCC1COC(C)(C(=O)O)OC1)c1ccc(-c2ccccc2)cc1` (centres unmarked) [Example 70, 5-[4-(1-Biphenyl-4-yl-ethylideneaminooxy)-butyl]-2-methyl-[1,3]dioxane-2-carboxylic Acid] returned an inhibition in vivo at 10 mg/kg/day in the data set with Swiss albino mice of 49%. In the data set with C57BL/KsJ-db/db mice, the “Plasma TG reduction (%)” value came to 52% and the “Serum Glucose reduction (%)” value is given as 26%.
For the molecule `CC(=NOCCCCC1COC(C)(C(=O)O)OC1)c1cccc(C)c1` (centres unmarked) [Example 76, 2-Methyl-5-[4-(1-m-tolyl-ethylideneaminooxy)-butyl]-[1,3]dioxane-2-carboxylic Acid], in the data set on Swiss albino mice, the inhibition in vivo at 10 mg/kg/day was 67%.
The molecule `CCC(=NOCCCCC1COC(C)(C(=O)O)OC1)c1ccc(OC)cc1` (centres unmarked) [Example 77, 5-{4-[1-(4-Methoxy-phenyl)-propylideneaminooxy]-butyl}-2-methyl-[1,3]dioxane-2-carboxylic Acid] returned an inhibition in vivo at 10 mg/kg/day in the data set with Swiss albino mice of 39%.
`CCC(=NOCCCCC1COC(C)(C(=O)O)OC1)c1ccc(C)cc1` (centres unmarked) [Example 78, 2-Methyl-5-[4-(1-p-tolyl-propylideneaminooxy)-butyl]-[1,3]dioxane-2-carboxylic Acid] gave an inhibition in vivo at 10 mg/kg/day with Swiss albino mice of 42%.
In the data set on Swiss albino mice, `CCCCCCCCOC(=O)C1(C)OCC(CCCCON=C(C)c2ccc3ccccc3c2)CO1` (centres unmarked) [Example 83, Octyl-2-methyl-5-[4-(1-naphthalen-2-yl-ethylideneaminooxy)-butyl]-[1,3]dioxane-2-carboxylate] displayed an inhibition in vivo at 10 mg/kg/day of 61%.

The record behind these values is patent US8268867B2, “1,3-dioxane carboxylic acids” (Cadila Healthcare Limited, priority 2006, dated 2012).
